Values of other authors in US20260317295A1, “NAV1.8 INHIBITORS, PREPARATION METHOD THEREFOR AND USE THEREOF” (SHANGHAI INSTITUTE OF MATERIA MEDICA, CHINESE ACADEMY OF …, priority 2023, published 2026).

Assays:
Nav1.8 [1] = settings: rat, STZ-induced diabetic neuropathy, intraperitoneal or intraplantar
Nav1.8 [2] = settings: rodents
Nav1.8 [3] = settings: L7-1.8TG transgenic mice

Row | Compound | pain behavioral responses (Nav1.8 [1]) | pain responses (Nav1.8 [2]) | MS behaviors (Nav1.8 [3])
1 | COc1cc(NC(=O)c2ccc(-c3ccc(Cl)cc3)o2)cc(OC)c1 [Compound A-803467] | dose-dependently alleviate the animals' pain behavioral responses | effectively alleviate pain responses | –
2 | CNC(=O)c1ccc(-c2cc(Cl)cc(Cl)c2Cl)c(N)n1 [PF-01247324] | – | – | alleviate the MS behaviors
